Earlier results, collected in US20110117175A1, “SWEET ANALGESIC FOR USE IN MEDICAL PROCEDURES OR TREATMENTS” (priority 2009, published 2011).

What was measured:
[1] = system: infant or neonate
[2] = system: patients older than infants
[3] = minimal amount of sugar used
[4] = 1 to 2 drops on tongue or pacifier

## OC[C@H]1O[C@@](CO)(O[C@H]2O[C@H](CO)[C@@H](O)[C@H](O)[C@H]2O)[C@@H](O)[C@@H]1O [sucrose]
[1]; [4]
  duration of infant or neonate response: up to 10 minutes
  time to infant or neonate response: up to 10 seconds
[1]; infant or neonate, given prior to a painful procedure
  pain response: decreases the pain response
[2]; adult patients (studies of adult woman)
  use as an analgesic: ineffective
[2]; patients older than infants
  pain relief: unsuccessful
[3]
  blood glucose levels: no increase
